11 compounds from patent US8546376B2, “Pharmaceutical compounds” (Almac Discovery Limited, priority 2009, dated 2013) can be followed below.

One assay has as its target T1, AKT3 (Homo sapiens, UniProt Q9Y243).
T1 construct: purchased SignalChem
Kind of assay: AKT Kinase Assay (IMAP fluorescent polarisation) vs AKT3. Particulars: activated AKT3, FAM Crosstide substrate. It is filed as biochemical. In outline: (§1)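 IC50 values came from non-linear regression of % inhibition relative to vehicle, measured by IMAP fluorescence polarisation (485/528 nm) after a 1 h room-temperature reaction of FAM-Crosstide and ATP. Each activated isoform was first exposed to compound for 45 min across fourteen half-log doses.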

Assay [1] has as its system PC3 and/or LnCaP cell lines. Kind of assay: In vitro cell proliferation assay (Cell Titre Glo). It is filed as cell-based. The settings on record: Homo sapiens, 72 hours, read-out: inhibition of proliferation IC50. How it is done:
Testing of the compounds was also performed using in vitro cell proliferation assays:
Cell Titre Glo (Promega) is a highly sensitive homogeneous reagent used to determine the viability of cells. The reagent uses a stable form of luciferase to measure ATP as an output of viability. The luminescent values generated in the assay are directly proportional to the number of viable cells in your assay.
The following materials were used: White, clear bottomed 96 well assay plates (Costar); Cell titre Glo reagents; LnCaP (ECACC) cells grown in RPMI medium (Invitrogen) supplemented with 10 mM HEPES (Invitrogen), 1 mM Sodium pyruvate (Invitrogen), 2 mM L-Glutamine (Invitrogen) and 10% Foetal calf serum (Invitrogen); PC3 (ECACC) cells grown in RPMI medium supplemented with 10% Foetal calf serum (Invitrogen); Trypsin (Invitrogen); PBS (Invitrogen); Biotek Synergy 4 Hybrid Plate reader; 96 well plate shaker (Stuart SSL5); Eppendorf 5414 desk-top centrifuge; Beckman Coulter cell counter Z1 single threshold system.
Prostate cell lines, PC3 and LnCaP, were washed, detached and re-suspended in their respective fresh media. The cells were pelleted by centrifugation (Eppendorf 5414) and spent supernatant discarded. The cells were re-suspended by vortex mixing, counted and seeded into clear bottom white 96 well plates at a density of 5000 cells per well. The cells were incubated (Sanyo) overnight at 37° C. ([…]), and next day treated with increasing concentrations of test compound formulated in fresh medium. The plates were returned to the incubator for 72 hours. […]
The cell viability post compound treatment was determined by the luminescent intensity emitted from the drug treated wells in the plate. In brief, the assay plate was placed in the Biotex Synergy 4 Hybrid plate reader and the luminescence read in each well. The compound treated wells were compared to vehicle treated wells and the % inhibition of cell viability calculated.
The data was analysed using GraphPad Prism, with IC50 values generated using non-linear regression of the data set.

The next assay has as its target T2, AKT1 (Homo sapiens, UniProt P31749).
T2 construct: purchased SignalChem
Kind of assay: AKT Kinase Assay (IMAP fluorescent polarisation) vs AKT1. It is filed as biochemical. The settings on record: activated AKT1, FAM Crosstide substrate. In outline:
as §1

The target in another assay is T3, AKT2 (Homo sapiens, UniProt P31751).
T3 construct: purchased SignalChem
T3 sequence (P31751 whole entry): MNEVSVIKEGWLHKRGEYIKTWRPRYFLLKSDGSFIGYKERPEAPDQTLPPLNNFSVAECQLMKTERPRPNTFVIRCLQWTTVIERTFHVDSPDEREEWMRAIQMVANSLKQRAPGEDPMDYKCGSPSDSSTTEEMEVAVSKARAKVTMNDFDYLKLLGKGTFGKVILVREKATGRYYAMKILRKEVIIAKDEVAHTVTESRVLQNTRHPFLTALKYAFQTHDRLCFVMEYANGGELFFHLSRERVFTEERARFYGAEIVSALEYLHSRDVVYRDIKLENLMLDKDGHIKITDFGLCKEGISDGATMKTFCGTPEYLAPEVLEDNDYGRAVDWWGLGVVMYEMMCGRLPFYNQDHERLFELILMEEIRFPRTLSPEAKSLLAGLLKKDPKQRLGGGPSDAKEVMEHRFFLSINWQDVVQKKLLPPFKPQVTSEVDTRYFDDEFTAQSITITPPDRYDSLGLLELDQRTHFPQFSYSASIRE
Kind of assay: AKT Kinase Assay (IMAP fluorescent polarisation) vs AKT2. It is filed as biochemical. Particulars: activated AKT2, FAM Crosstide substrate. In outline: as §1

The next assay deals with AKT phosphorylation. Kind of assay: Phosphorylation status of AKT/PI3K pathway members via western blotting. It is filed as cell-based. The settings on record: for 48 h at 10 μM. An excerpt: Analysis of Compound Effects on AKT Signalling Pathways
Phosphorylation status of various members of the AKT/PI3K pathway were investigated via western blotting.
Materials Required for this Assay: 20× Running buffer (Invitrogen); Rainbow marker ladder (GE Healthcare); Reducing buffer (Invitrogen); 20× Transfer buffer (Invitrogen); 4-12% Bis-Tris Gels (Invitrogen); Filter paper (Whatman); Nitrocellulose (Amersham); ECL plus detection reagents (GE Healthcare); Radiographic film (Kodak); Biorad Protein determination reagent (Biorad); AKT pathway signalling antibodies (Cell Signalling)
LnCaP and PC3 cell lines were washed, detached and re-suspended in fresh medium. They were seeded in 90 mm^2 dishes and incubated overnight ([…]/5% CO2) to allow adherence. […]
The medium was removed and the cells placed on ice and washed in PBS. […] The resultant supernatant was assayed for protein content using the Bradford method (Biorad) and equal quantities of protein calculated and heated in sample reducing buffer to 95° C. for ten minutes. […]
The membranes were used to determine difference in total AKT, pSer473 AKT, pGSK3β and total GSK3β (all sourced from Cell Signalling). […] The membranes were washed three times in PBS and incubated with the respective secondary antibodies (Sigma Aldrich) for two hours and the proteins were detected using ECL plus detection reagents (GE Healthcare).
In general terms: In western blotting, separated proteins are transferred to a membrane and probed.

Counter-ions that a name gives are not always drawn.

T2 sequence (P31749 whole entry): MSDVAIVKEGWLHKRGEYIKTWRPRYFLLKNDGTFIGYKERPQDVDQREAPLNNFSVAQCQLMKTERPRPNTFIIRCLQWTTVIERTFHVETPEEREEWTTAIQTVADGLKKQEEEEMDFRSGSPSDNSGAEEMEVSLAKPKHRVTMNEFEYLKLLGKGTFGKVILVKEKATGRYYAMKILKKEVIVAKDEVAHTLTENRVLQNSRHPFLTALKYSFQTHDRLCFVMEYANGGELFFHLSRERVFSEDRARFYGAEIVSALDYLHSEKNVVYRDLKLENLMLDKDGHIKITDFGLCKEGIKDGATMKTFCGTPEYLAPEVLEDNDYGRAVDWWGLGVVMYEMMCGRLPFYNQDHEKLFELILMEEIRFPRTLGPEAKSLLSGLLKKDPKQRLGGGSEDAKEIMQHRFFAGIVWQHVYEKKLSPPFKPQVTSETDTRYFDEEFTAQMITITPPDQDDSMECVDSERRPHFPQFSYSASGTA
T1 sequence (Q9Y243 whole entry): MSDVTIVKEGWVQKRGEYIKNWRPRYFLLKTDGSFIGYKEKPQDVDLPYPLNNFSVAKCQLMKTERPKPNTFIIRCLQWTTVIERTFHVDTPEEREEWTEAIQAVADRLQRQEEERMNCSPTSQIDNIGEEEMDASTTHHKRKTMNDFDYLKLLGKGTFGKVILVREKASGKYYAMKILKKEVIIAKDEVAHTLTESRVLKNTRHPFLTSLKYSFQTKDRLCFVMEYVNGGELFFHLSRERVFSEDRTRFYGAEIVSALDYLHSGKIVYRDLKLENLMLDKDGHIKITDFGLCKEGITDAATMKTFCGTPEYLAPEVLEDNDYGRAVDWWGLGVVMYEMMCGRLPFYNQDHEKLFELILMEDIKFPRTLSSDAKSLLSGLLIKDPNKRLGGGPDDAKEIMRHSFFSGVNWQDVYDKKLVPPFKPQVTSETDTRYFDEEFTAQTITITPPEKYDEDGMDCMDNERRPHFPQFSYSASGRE

For the compound `Cl.NC1(c2ccc(-c3c(-c4ccccc4)oc4c(=O)[nH]ccc4c3=O)cc2)CCC1` [Example 40, 3-[4-(1-Amino-cyclobutyl)-phenyl]-2-phenyl-7H-pyrano[2,3-c]pyridine-4,8-dione hydrochloride], the IC50 on AKT3 is 1000 to 10000 nM; in assay [1], less than 10000 nM; on AKT1, not above 1000 nM; at AKT2, not above 1000 nM. Moreover, the “inhibition of AKT phosphorylation” value in the assay on AKT phosphorylation is listed as “inhibition of AKT phosphorylation”.

For `NC1(c2ccc(-c3c(-c4ccccc4)oc4c(cc(Cl)c5nc[nH]c54)c3=O)cc2)CCC1` [Example 44, 7-[4-(1-Amino-cyclobutyl)-phenyl]-4-chloro-8-phenyl-1H-chromeno[7,8-d]imidazol-6-one], the IC50 at AKT3 is not above 1000 nM; in assay [1], less than 10000 nM; on AKT1, not above 1000 nM; at AKT2, not above 1000 nM.

In the case of `CN1CCN(c2ccc3oc(-c4ccccc4)c(-c4ccc(C5(N)CCC5)cc4)c(=O)c3c2)CC1` [Example 20, 3-[4-(1-Amino-cyclobutyl)-phenyl]-6-(4-methyl-piperazin-1-yl)-2-phenyl-chromen-4-one], the IC50 on AKT3 is more than 10000 nM; on AKT1, 1000 to 10000 nM; at AKT2, not above 1000 nM. Besides, the “inhibition of AKT phosphorylation” value in the assay on AKT phosphorylation is listed as “inhibition of AKT phosphorylation”.

For `COc1ccc2c(=O)c(-c3ccc(C4(N)CCC4)cc3)c(-c3ccccc3)oc2c1OC` [Example 4, 3-[4-(1-Amino-cyclobutyl)-phenyl]-7,8-dimethoxy-2-phenyl-chromen-4-one], the IC50 on AKT3 is more than 10000 nM; in assay [1], less than 10000 nM; at AKT1, 1000 to 10000 nM; on AKT2, not above 1000 nM.

In the case of `COc1ccc2c(=O)c(-c3ccc(C4(N)CCC4)cc3)c(-c3ccccc3)oc2c1C(N)=O` [Example 50, 3-[4-(1-Amino-cyclobutyl)-phenyl]-7-methoxy-4-oxo-2-phenyl-4H-chromene-8-carboxylic acid amide hydrochloride], the IC50 on AKT3 was 1000 to 10000 nM; on AKT1 it was not above 1000 nM; at AKT2, 1000 to 10000 nM.

For `NC1(c2ccc(-c3c(-c4ccccc4)oc4cc(F)c(F)cc4c3=O)cc2)CCC1` [Example 23, 3-[4-(1-Amino-cyclobutyl)-phenyl]-6,7-difluoro-2-phenyl-chromen-4-one], the IC50 on AKT3 was more than 10000 nM; on AKT1 it was 1000 to 10000 nM; at AKT2, 1000 to 10000 nM.

`Cc1c(-c2nccc3c(=O)c(-c4ccc(C5(N)CCC5)cc4)c(-c4ccccc4)oc23)cnn1C` [Example 116, 3-(4-(1-aminocyclobutyl)phenyl)-8-(1,5-dimethyl-1H-pyrazol-4-yl)-2-phenyl-4H-pyrano[2,3-c]pyridin-4-one]: the figures for the IC50 on AKT3, at AKT1 and on AKT2 were 1000 to 10000 nM, not above 1000 nM and 1000 to 10000 nM, respectively.

As for `NC1(c2ccc(-c3c(-c4ccccc4)oc4c(CCCl)nccc4c3=O)cc2)CCC1` [Example 129, 3-(4-(1-aminocyclobutyl)phenyl)-8-(2-chloroethyl)-2-phenyl-4H-pyrano[2,3-c]pyridin-4-one], the IC50 at AKT3 is 1000 to 10000 nM; at AKT1, not above 1000 nM; at AKT2 it was not above 1000 nM.

As for `NC1(c2ccc(-c3c(-c4ccccc4)oc4c(Br)cccc4c3=O)cc2)COC1` [Example 67, 3-[4-(3-Amino-oxetan-3-yl)-phenyl]-8-bromo-2-phenyl-chromen-4-one], the IC50 was more than 10000 nM on AKT3, not above 1000 nM at AKT1 and more than 10000 nM on AKT2.

In the case of `NC1(c2ccc(-c3c(-c4ccccc4)oc4c(CN5CC(F)C5)cccc4c3=O)cc2)CCC1` [Example 108, 3-[4-(1-Amino-cyclobutyl)-phenyl]-8-(3-fluoro-azetidin-1-ylmethyl)-2-phenyl-chromen-4-one], the IC50 was more than 10000 nM on AKT3, 1000 to 10000 nM on AKT1 and not above 1000 nM on AKT2.

In the case of `CCc1nccc2c(=O)c(-c3ccc(C4(N)CCC4)cc3)c(-c3ccccc3)oc12` [Example 128, 3-(4-(1-aminocyclobutyl)phenyl)-8-ethyl-2-phenyl-4H-pyrano[2,3-c]pyridin-4-one], the IC50 was more than 10000 nM on AKT3, not above 1000 nM on AKT1 and 1000 to 10000 nM at AKT2.
